Results taken from the NIST ThermoML archive (doi:10.1016/j.jct.2011.04.010).
± gives the expanded uncertainty stated by the source.

Tests used:
[1] = xn = mol fraction of the nth substance listed; settings: 101 kPa, Liquid; for speed of sound: 298.15 K, Ecolab MPFU speed of sound meter; for mass density: Vibrating tube method
[2] = molar heat capacity at constant pressure; xn = mol fraction of the nth substance listed; settings: 298.15 K, 101 kPa, Liquid, Flow calorimetry

COCCO [2-methoxyethan-1-ol] + CC#N
Settings | molar heat capacity at constant pressure, [2] [J/K/mol] | speed of sound, [1] [m/s]
x1 = 0.0504 | 97.12 ± 0.6 | –
x1 = 0.09833 | – | 1281.3 ± 2
x1 = 0.1006 | 101.84 ± 0.63 | –
x1 = 0.1504 | 106.53 ± 0.66 | –
x1 = 0.1641 | 107.81 ± 0.67 | –
x1 = 0.1936 | – | 1285.5 ± 2
x1 = 0.1955 | 110.77 ± 0.68 | –
x1 = 0.2 | 111.19 ± 0.69 | –
x1 = 0.2999 | – | 1292.4 ± 2
x1 = 0.3003 | 120.53 ± 0.74 | –
x1 = 0.3989 | – | 1300.3 ± 2
x1 = 0.4043 | 129.87 ± 0.8 | –
x1 = 0.45 | 133.82 ± 0.83 | –
x1 = 0.5007 | 138.04 ± 0.85 | –
x1 = 0.5042 | – | 1309.5 ± 2
x1 = 0.6021 | 146.04 ± 0.9 | –
x1 = 0.605 | – | 1318.2 ± 2
x1 = 0.6287 | 148.03 ± 0.91 | –
x1 = 0.6497 | 149.58 ± 0.92 | –
x1 = 0.7347 | – | 1328.4 ± 2
x1 = 0.7453 | 156.4 ± 0.97 | –
x1 = 0.7493 | 156.67 ± 0.97 | –
x1 = 0.8295 | – | 1334.3 ± 2
x1 = 0.9064 | 167.3 ± 1 | –
x1 = 0.9177 | – | 1338.1 ± 2
x1 = 0.9498 | 170.12 ± 1.1 | –
x1 = 1 | 173.25 ± 1.1 | 1339.7 ± 2

mass density [kg/m3], [1]
Settings | 308.15 K | 318.15 K
x1 = 0.00977 | – | 758.593 ± 0.15
x1 = 0.00998 | 768.618 ± 0.14 | –
x1 = 0.02023 | – | 761.593 ± 0.15
x1 = 0.02137 | 771.87 ± 0.14 | –
x1 = 0.0304 | – | 764.483 ± 0.14
x1 = 0.03278 | 775.071 ± 0.14 | –
x1 = 0.04029 | – | 767.262 ± 0.14
x1 = 0.04058 | 777.238 ± 0.14 | –
x1 = 0.04893 | – | 769.671 ± 0.14
x1 = 0.0505 | 779.979 ± 0.14 | –
x1 = 0.05932 | – | 772.54 ± 0.14
x1 = 0.06681 | – | 774.593 ± 0.14
x1 = 0.06827 | 784.813 ± 0.14 | –
x1 = 0.07039 | 785.413 ± 0.14 | –
x1 = 0.07541 | 786.728 ± 0.14 | –
x1 = 0.07969 | – | 778.086 ± 0.14
x1 = 0.091 | – | 781.124 ± 0.14
x1 = 0.09332 | 791.503 ± 0.13 | –
x1 = 0.1015 | – | 783.904 ± 0.14
x1 = 0.1019 | 793.744 ± 0.13 | –
x1 = 0.1512 | 806.368 ± 0.13 | –
x1 = 0.1516 | – | 796.793 ± 0.13
x1 = 0.195 | 817.055 ± 0.12 | 807.486 ± 0.13
x1 = 0.2495 | 829.827 ± 0.12 | –
x1 = 0.2503 | – | 820.48 ± 0.12
x1 = 0.2981 | 840.655 ± 0.11 | –
x1 = 0.304 | – | 832.469 ± 0.12
x1 = 0.4001 | 861.695 ± 0.1 | –
x1 = 0.4012 | – | 852.641 ± 0.11
x1 = 0.5006 | 880.458 ± 0.095 | –
x1 = 0.5007 | – | 871.365 ± 0.1
x1 = 0.6017 | 897.597 ± 0.088 | –
x1 = 0.6038 | – | 888.921 ± 0.092
x1 = 0.7031 | – | 904.33 ± 0.086
x1 = 0.7041 | 913.484 ± 0.081 | –
x1 = 0.8014 | – | 918.191 ± 0.08
x1 = 0.8024 | 927.171 ± 0.075 | –
x1 = 0.9034 | – | 931.153 ± 0.074
x1 = 0.9066 | 940.325 ± 0.072 | –
x1 = 0.9102 | 940.846 ± 0.07 | –
x1 = 0.9133 | – | 932.346 ± 0.073
x1 = 0.9213 | 942.098 ± 0.07 | –
x1 = 0.9235 | – | 933.569 ± 0.073
x1 = 0.9316 | 943.319 ± 0.069 | –
x1 = 0.935 | – | 934.916 ± 0.072
x1 = 0.9417 | 944.49 ± 0.069 | –
x1 = 0.9434 | – | 935.911 ± 0.072
x1 = 0.9524 | – | 936.96 ± 0.071
x1 = 0.9528 | 945.766 ± 0.068 | –
x1 = 0.9632 | 946.944 ± 0.068 | –
x1 = 0.9635 | – | 938.217 ± 0.071
x1 = 0.9702 | 947.731 ± 0.068 | –
x1 = 0.9723 | – | 939.208 ± 0.07
x1 = 0.9814 | 948.974 ± 0.067 | 940.219 ± 0.07
x1 = 0.9929 | – | 941.484 ± 0.069
x1 = 0.9931 | 950.261 ± 0.067 | –
x1 = 1 | 951.01 ± 0.063 | 942.253 ± 0.065

CC#N [acetonitrile] + COCCO
Settings | speed of sound [m/s]
[1], x2 = 0 | 1279.6 ± 2

[1], x2 = 0
Settings | mass density [kg/m3]
308.15 K | 765.735 ± 0.13
318.15 K | 755.763 ± 0.14
